Patent publication US20220395497A1, “Cancer Treatment Using Camptothecin Derivatives” (priority 2019, published 2022)

Test system: adults with recurrence of glioblastoma multiforme (GBM)
Experiment: Phase 2 open-label study of IV AR-67 (7.5 mg/m2 once daily for 5 days, 21-day cycle) in recurrent GBM: tumor response (MRI, MacDonald criteria), PFS, disposition. Cohort 1 = not received or not recently failed (>90 days) bevacizumab; Cohort 2 = recently (<90 days) failed bevacizumab
Type: in vivo, human
Description: The primary objective in the rapid bevacizumab failure group (<90 days) was to determine the 2-month PFS.
This solution was reconstituted in dextrose 5% in water to a final concentration between 0.06-0.6 mg/mL Drug (7.5 mg/m2) was to be given until the onset of toxicity requiring discontinuation or tumor progression. Tumor response was assessed=14d after every second cycle and before every third cycle using MRI.

CC[C@@]1(O)C(=O)OCc2c1cc1n(c2=O)Cc2c-1nc1ccc(O)cc1c2[Si](C)(C)C(C)(C)C [AR-67, (205)-7-tert-butyldimethysilyl-10-hydroxycamptothecin]
Best Overall Response: Complete Response, patients (All Patients, N = 46): 0
Best Overall Response: Progressive Disease, patients (All Patients, N = 46): 31
Response at Study Completion or Discontinuation: Complete Response, patients (All Patients, N = 46): 0
Response at Study Completion or Discontinuation: Progressive Disease, patients (All Patients, N = 46): 39
Response at Study Completion or Discontinuation: Stable Disease, patients (All Patients, N = 46): 2
Withdrawal due to Adverse event, patients (%) (All Patients, N = 46): 2.2%
Withdrawal due to Death, patients (%) (All Patients, N = 46): 6.5%
Withdrawal due to Disease progression, patients (%) (All Patients, N = 46): 69.6%
Best Overall Response: Complete Response, patients (Cohort 1, N = 31): 0
Best Overall Response: Partial Response, patients (Cohort 1, N = 31): 3
Best Overall Response: Progressive Disease, patients (Cohort 1, N = 31): 20
Best Overall Response: Stable Disease, patients (Cohort 1, N = 31): 5
Response at Study Completion or Discontinuation: Complete Response, patients (Cohort 1, N = 31): 0
Response at Study Completion or Discontinuation: Partial Response, patients (Cohort 1, N = 31): 1
Response at Study Completion or Discontinuation: Progressive Disease, patients (Cohort 1, N = 31): 28
Response at Study Completion or Discontinuation: Stable Disease, patients (Cohort 1, N = 31): 0
Withdrawal due to Death, patients (%) (Cohort 1, N = 31): 6.5%
Withdrawal due to Disease progression, patients (%) (Cohort 1, N = 31): 77.4%
Best Overall Response: Complete Response, patients (Cohort 2, N = 13): 0
Best Overall Response: Partial Response, patients (Cohort 2, N = 13): 0
Best Overall Response: Progressive Disease, patients (Cohort 2, N = 13): 10
Response at Study Completion or Discontinuation: Complete Response, patients (Cohort 2, N = 13): 0
Response at Study Completion or Discontinuation: Partial Response, patients (Cohort 2, N = 13): 0
Response at Study Completion or Discontinuation: Progressive Disease, patients (Cohort 2, N = 13): 10
Response at Study Completion or Discontinuation: Stable Disease, patients (Cohort 2, N = 13): 2
Withdrawal due to Adverse event, patients (%) (Cohort 2, N = 13): 7.7%
Withdrawal due to Death, patients (%) (Cohort 2, N = 13): 7.7%
Withdrawal due to Disease progression, patients (%) (Cohort 2, N = 13): 53.8%
efficacy, reason for study termination (in vivo): lack of efficacy
outcome (rGBM patients who failed bevacizumab within 90 days of last dose): fared poorly
patients who surpassed the PFS6 endpoint (rGBM patients who had never taken bevacizumab, or had not failed bev treatment within 90 days of last dose): 20%
